Publication PMC13492205, “LC–MS/MS method for the quantitation of a dual PI3K/BRD4 inhibitor SF2523 in mouse plasma: Application to plasma protein binding and metabolism studies” (Biomedical chromatography : BMC, 2023)

Tests used:
mouse plasma proteins = experiment: Plasma protein binding by rapid equilibrium dialysis; assay type: in vitro ADME
Method: (§1) The sample contained mouse plasma spiked with 1 or 10 μM SF2523 and was added to the sample chamber. The rapid equilibrium dialysis kit top was then sealed and incubated at 37°C on an orbital shaker at 100 rpm for 5 h.
(§2) At pre-determined times, aliquots (40 μl) were removed from the sample, and buffer chambers and mixed with an equal volume of buffer or blank plasma, respectively. The samples were further processed by SPE as described above and analyzed by LC–MS/MS. The stability, equilibrium, device recovery and PPB were calculated using the following equations ([Lindup & Orme, 1981]): (5) %Remaining at5h=[…]/Concentration0h×100 (6) %Equilibrium=Concentrationreceiver cell/Concentrationdonor cell×100 (7) %Device Recovery=Concentrationreceiver cell+Concentrationdonor cell/Concentration0h×100 (8) %Bound=Concentrationdonor cell−Conentrationreceiver cell/Concentrationdonor cell×100

[1] = In vitro metabolic stability in mouse S9; conditions: for metabolic stability of positive controls: S9 and microsomes, in-house limits
Method: (§3) For metabolic stability samples, extractions (50 μl) were taken at each pre-determined time point and mixed with 300 μl of ice-cold methanol containing IS in a 1.5 ml centrifuge tube. Then, samples were vortexed for 2 min and centrifuged (17,950g) for 10 min. An aliquot (100 μl) of the clear supernatant was transferred into an autosampler vial and 2 μl was injected into the LC–MS/MS system.
Metabolic stability was assessed using mouse, rat and human liver microsomes, and mouse liver S9 fractions (XenoTech, LLC, Lenexa, KS, USA) were used for the in vitro assessment of phase I and II metabolism. Incubation with S9 fractions was performed in triplicate, at 2 μM SF2523 concentration as described in our previous report ([Aldhafiri et al., 2020]; [Bala et al., 2020]). The reaction was started by adding 2 μl of SF2523 at a final concentration of 2 μM. Serial samples (50 μl) were collected at selected time intervals and quenched with 300 μl of methanol spiked with 10 μl of IS (0.5 μg/ml). All of the samples were vortexed and centrifuged at 13,000g for 15 min, and the supernatant was collected and transferred to an autosampler vial and injected (2 μl) onto the LC–MS/MS system. Testosterone 7-hydroxycoumarin and diclofenac were used as positive controls to ensure that S9, microsomes and the incubation conditions were appropriate to conduct metabolism studies.
The S9 fraction and microsomal stability were expressed as the percentage of drug remaining at each time. The in vitro metabolic elimination rate constant was determined from the first-order plot of a natural logarithm of the area ratio vs. time. The slope of the linear regression equation was used to determine the elimination rate constant k (min^−1).

[2] = Metabolite identification in mouse S9 fraction; assay type: in vitro ADME; conditions: phase I and II, 35 min gradient LC–MS/MS
Method: For metabolite identification, mass shift analyses were performed using the same LC–MS/MS system. […] The parent drug MS/MS spectrum was used as a template model for structure identification and assuming that the fragmentation pattern of the parent drug from the production spectrum was used to deduce the structures of the metabolites ([Francis et al., 1999]). The data acquisition for the metabolite identification study was conducted using Labsolution software (Shimadzu Scientific Instruments, Columbia, MD, USA, version 5.8).

[3] = In vitro metabolic stability in mouse liver microsomes; assay type: in vitro ADME; conditions: read-out: in vitro t1/2
Method: as §3
(§4) Metabolic stability was assessed using mouse, rat and human liver microsomes, and mouse liver S9 fractions (XenoTech, LLC, Lenexa, KS, USA) were used for the in vitro assessment of phase I and II metabolism. Incubation with S9 fractions was performed in triplicate, at 2 μM SF2523 concentration as described in our previous report ([Aldhafiri et al., 2020]; [Bala et al., 2020]). The reaction was started by adding 2 μl of SF2523 at a final concentration of 2 μM. Serial samples (50 μl) were collected at selected time intervals and quenched with 300 μl of methanol spiked with 10 μl of IS (0.5 μg/ml). […]
(§5) The S9 fraction and microsomal stability were expressed as the percentage of drug remaining at each time. The in vitro metabolic elimination rate constant was determined from the first-order plot of a natural logarithm of the area ratio vs. time. […]

[4] = In vitro metabolic stability in human S9; assay type: in vitro ADME; conditions: S9 fraction; human S9, 2 μM; read-out: in vitro t1/2
[5] = Blood-to-plasma ratio in mouse blood; assay type: in vitro ADME
Method: At different time points (0, 30 and 60 min) aliquots (50 μl) were collected for blood analysis, and an additional sample (120 μl) was transferred to a microcentrifuge tube and centrifuged at 4,000g for 10 min at 4°C to separate 50 μl plasma for analysis. The whole blood and plasma samples were further processed by SPE as described above. The analyte peak area ratios were used to calculate the blood-to-plasma (B/P) ratio using Equation (4).
(4) ∕PBration=Analyte concentration in whole blood/Analyte concentration in plasma

[6] = Stability of SF2523 in mouse plasma under storage conditions; assay type: in vitro ADME
Method: Stability in mouse plasma was assessed in triplicate at LQC and HQC concentrations at room temperature (6 h, 25 ± 5°C), and after three freeze–thaw cycles (−80°C) and long-term storage (60 days at −80°C). Additionally, the 24 h autosampler stability of extracted samples (at 4°C) was determined.

[7] = In vitro metabolic stability in human liver microsomes; assay type: in vitro ADME; conditions: read-out: in vitro t1/2
Method: as §3, §4, §5

[8] = Gastrointestinal fluid stability (SGF, SIF, phosphate buffer); assay type: physicochemical; conditions: 37°C
Method: Simulated GIs were prepared according to United States Pharmacopoeia (USP) specifications. Briefly, SF2523 at 10 μM concentration was incubated with simulated gastric fluid (SGF). Simulated intestinal fluid (SIF) and phosphate buffer (100 mM, pH 7.4) were kept at 37°C in a shaking water bath, each in triplicate. Samples (100 μl) were collected at 0, 15, 30, 60 and 120 min. Immediately after sample collection, 5 vols of methanol containing IS were added and samples were prepared for analysis. Stability was determined as the percentage of parent compound detected at each time point relative to the concentration at 0 min in buffer (100%) ([Wang et al., 2015]).

[9] = Plasma protein binding by rapid equilibrium dialysis; assay type: in vitro ADME, mouse; conditions: mouse plasma, mean, n = 3
Method: as §1, §2

[10] = Stability of SF2523 in mouse plasma under storage conditions; assay type: in vitro ADME; conditions: nominal 200 ng/ml, mean ± SD, n = 3, read-out: Stability recovery, Accuracy (%)

## CC(C)NCC(O)COc1cccc2ccccc12 (stereo not drawn) [propranolol, reference compound]
Mouse plasma proteins; compared with limits reported in the literature (Barber et al., 1978)
  plasma protein binding of positive control drugs: within the acceptable limits

## O=c1cc(N2CCOCC2)oc2c(-c3ccc4c(c3)OCCO4)csc12 [SF2523]
[1]; mouse, liver S9 fraction
  half-life at 2 μM: < 2 min
[2]
  number of metabolites identified: Seven
[3]
  half-life at 2 μM: < 2 min
[4]
  half-life at 2 μM: < 2 min
[5]; At 0.1 μg/ml, time point 0 min
  B/P: 0.85
[5]; At 0.1 μg/ml, time point 30 min
  B/P: 0.98
[5]; At 0.1 μg/ml, time point 60 min
  B/P: 0.83
[5]; At 1 μg/ml, time point 0 min
  B/P: 0.85
[5]; At 1 μg/ml, time point 30 min
  B/P: 0.93
[5]; At 1 μg/ml, time point 60 min
  B/P: 0.93
[5]; whole blood, 0.1 μg/ml, overall value, read-out: blood-to-plasma ratio (B/P)
  blood plasma ratio at 0.1 μg/ml: 0.88
[5]; whole blood, 1 μg/ml, overall value, read-out: blood-to-plasma ratio (B/P)
  blood plasma ratio at 1 μg/ml: 0.9
[6]; mouse plasma, Bench-top stability for 8 h at (21°C, 6 h), nominal 0.3 ng/ml, mean ± SD, n = 3, read-out: Stability recovery, Accuracy (%)
  recovery at 6 h, 0.3 ng/ml: 95.8 ± 4.03%
[6]; mouse plasma, Bench-top stability for 8 h at (21°C, 6 h), nominal 375 ng/ml, mean ± SD, n = 3, read-out: Stability recovery, Accuracy (%)
  recovery at 6 h, 375 ng/ml: 111.2 ± 0.21%
[6]; mouse plasma, Long-term stability (60 days, −80°C), nominal 0.3 ng/ml, mean ± SD, n = 3, read-out: Stability recovery, Accuracy (%)
  recovery at 60 days, 0.3 ng/ml: 103 ± 2.62%
[6]; mouse plasma, Long-term stability (60 days, −80°C), nominal 375 ng/ml, mean ± SD, n = 3, read-out: Stability recovery, Accuracy (%)
  recovery at 60 days, 375 ng/ml: 97.25 ± 0.35%
[6]; mouse plasma, Three freeze-thaw cycles (−80°C to room temperature), nominal 0.3 ng/ml, mean ± SD, n = 3, read-out: Stability recovery, Accuracy (%)
  recovery at 0.3 ng/ml: 92.9 ± 12.3%
[6]; mouse plasma, Three freeze-thaw cycles (−80°C to room temperature), nominal 375 ng/ml, mean ± SD, n = 3, read-out: Stability recovery, Accuracy (%)
  recovery at 375 ng/ml: 113.7 ± 0.14%
[6]; mouse, extracted plasma samples, Autosampler stability (4°C, 24 h), nominal 0.3 ng/ml, mean ± SD, n = 3, read-out: Stability recovery, Accuracy (%)
  recovery at 24 h, 0.3 ng/ml: 105 ± 5.16%
[6]; mouse, extracted plasma samples, Autosampler stability (4°C, 24 h), nominal 375 ng/ml, mean ± SD, n = 3, read-out: Stability recovery, Accuracy (%)
  recovery at 24 h, 375 ng/ml: 103 ± 1.13%
[6]; under a variety of storage conditions
  parent drug remaining: > 90%
[7]
  half-life at 2 μM: < 2 min
[8]; phosphate buffer pH 7.4, 10 μM, after 2 h
  parent remaining: > 90%
[8]; simulated gastric fluid (SGF), pH 1.2, 10 μM, after 1 h
  parent remaining: > 90%
[8]; simulated intestinal fluid (SIF), pH 6.8, 10 μM, after 2 h
  parent remaining: > 90%
Mouse plasma proteins; mouse plasma, 37°C, 5 h incubation, mean, n = 3
  Percentage remaining at 5 h (stability): 99.06%
Mouse plasma proteins; mouse plasma, both tested concentrations
  bound to mouse plasma proteins: > 95%
Mouse plasma proteins; rapid equilibrium dialysis device, mouse plasma, mean, n = 3
  Percentage device recovery: 98.58%
[9]; at 1 µM, read-out: Percentage plasma protein bound (converted)
  fraction unbound at 5 h, 1 µM: 0.0418
[9]; at 10 µM, read-out: Percentage plasma protein bound (converted)
  fraction unbound at 5 h, 10 µM: 0.0327
[9]; mouse, mouse plasma in rapid equilibrium dialysis device, rapid equilibrium dialysis device, read-out: Percentage device recovery
  recovery at 5 h: > 90%
[10]; mouse plasma, Bench-top stability for 8 h at (21°C, 6 h)
  recovery at 6 h, 200 ng/ml: 107 ± 4.5%
[10]; mouse plasma, Long-term stability (60 days, −80°C)
  recovery at 60 days, 200 ng/ml: 103 ± 11.2%
[10]; mouse plasma, Three freeze-thaw cycles (−80°C to room temperature)
  recovery at 200 ng/ml: 101 ± 5%
[10]; mouse, extracted plasma samples, Autosampler stability (4°C, 24 h)
  recovery at 24 h, 200 ng/ml: 101 ± 1.77%

## C[C@]12CC[C@H]3[C@@H](CCC4=CC(=O)CC[C@@]43C)[C@@H]1CC[C@@H]2O [testosterone]
[1]
  metabolic stability of positive controls: within acceptable in-house limits

## O=C(O)Cc1ccccc1Nc1c(Cl)cccc1Cl [diclofenac]
[1]
  metabolic stability of positive controls: within acceptable in-house limits

## O=c1ccc2ccc(O)cc2o1 [7-hydroxycoumarin]
[1]
  metabolic stability of positive controls: within acceptable in-house limits
